According to patent US20230321123A1, “INHIBITORS OF PSEUDOMONAS AERUGINOSA VIRULENCE FACTOR LasB” (Helmholtz-Zentrum Für Infektionsforschung GmbH, priority 2020, published 2023):

molecular target: T1, MMP-2 (Homo sapiens, UniProt P08253); experiment: Selectivity against human off-targets: MMP-2; assay type: biochemical; conditions: at 100 μM; read-out: Inhibition [%] MMP-2
T1 sequence (P08253 110-660): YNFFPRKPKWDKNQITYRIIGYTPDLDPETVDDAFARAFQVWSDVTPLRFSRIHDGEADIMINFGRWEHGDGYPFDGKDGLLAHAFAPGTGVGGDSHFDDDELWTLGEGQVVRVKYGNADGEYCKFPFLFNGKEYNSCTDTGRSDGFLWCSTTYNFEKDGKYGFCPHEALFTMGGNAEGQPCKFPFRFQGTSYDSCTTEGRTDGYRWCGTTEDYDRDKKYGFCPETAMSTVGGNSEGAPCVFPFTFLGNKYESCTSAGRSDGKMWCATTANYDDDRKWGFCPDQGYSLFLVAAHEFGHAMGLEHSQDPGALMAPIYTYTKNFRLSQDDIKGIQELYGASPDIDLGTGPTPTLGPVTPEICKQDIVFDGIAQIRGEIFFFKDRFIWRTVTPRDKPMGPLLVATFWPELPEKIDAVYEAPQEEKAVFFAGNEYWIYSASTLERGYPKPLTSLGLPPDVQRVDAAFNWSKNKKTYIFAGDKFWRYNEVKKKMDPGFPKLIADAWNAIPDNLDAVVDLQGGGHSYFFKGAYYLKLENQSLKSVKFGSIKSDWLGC
Excerpt: (§1) The inhibition of zinc-containing human enzymes is described frequently for LasB inhibitors and poses a serious difficulty in the development of selective compounds. Particularly, the inhibition of matrix metalloproteases (MMPs) should be avoided. To further investigate this issue, three derivatives (the compounds of examples 1, 5 and 8) have been tested for their selectivity against several human off-targets, including six MMPs, ADAM17 (TACE), HDAC-3 and HDAC-8 (Table 4). The selectivity of the compounds is particularly high for MMPs and HDACs, whereas the inhibition of ADAM17 was considerably stronger.

| SMILES | inhibition at 100 µM |
| --- | --- |
| CC(C)CC(C(=O)Nc1ccc(-c2ccc(Cl)cc2)nc1)P(=O)(O)O (stereo not shown) [Example 92] | 18% |

system: not listed separately; experiment: Cytotoxicity A549; assay type: cell-based; conditions: human, A549 cells
Method: (§2) The compounds of examples 1 and 5 were not toxic against the cell lines HepG2, HEK293 and A549 (Table 5). Additionally, the inhibitory effect against P. aeruginosa PA14 was evaluated to exclude an antibacterial effect of the compounds of the present invention. This is important as it was the aim to target virulence and not viability of the bacteria. […]

| SMILES | IC50 |
| --- | --- |
| CC(C)CC(C(=O)Nc1ccc(-c2ccc(Cl)cc2)nc1)P(=O)(O)O (stereo not shown) [Example 92] | > 100000 nM |

molecular target: LasB (Pseudomonas aeruginosa, UniProt Q02RJ6); experiment: biochemical; design: species or system P. aeruginosa; conditions: @ 50 μm
Sequence (Q02RJ6 198-498): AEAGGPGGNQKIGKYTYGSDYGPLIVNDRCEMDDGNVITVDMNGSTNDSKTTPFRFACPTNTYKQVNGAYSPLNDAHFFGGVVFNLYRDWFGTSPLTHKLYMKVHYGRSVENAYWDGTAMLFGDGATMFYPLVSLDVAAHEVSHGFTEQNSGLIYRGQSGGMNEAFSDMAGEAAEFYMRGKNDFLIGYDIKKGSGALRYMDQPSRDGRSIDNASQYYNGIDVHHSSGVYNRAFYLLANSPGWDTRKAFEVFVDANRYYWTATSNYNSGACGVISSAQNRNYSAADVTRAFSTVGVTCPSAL

| SMILES | inhibition of LasB |
| --- | --- |
| O=C(CP(=O)(O)O)Nc1ccc(-c2ccc(Cl)cc2)cn1 [Example 90] | 31% inhibition @ 50 μm |

same assay, conditions: IC50 against LasB

| SMILES | IC50 |
| --- | --- |
| CC(C)CC(C(=O)Nc1ccc(Cl)c(Cl)c1)P(=O)(O)O (stereo not shown) [Example 64] | 26 ± 4 nM |
| CC(C)CC(C(=O)Nc1ccc(Br)cc1)P(=O)(O)O (stereo not shown) [Example 72] | 49 ± 2 nM |
| CC(C)CC(C(=O)N1CCN(c2ccc(Cl)cc2)CC1)P(=O)(O)O (stereo not shown) [Example 101] | 1450 ± 30 nM |
| CC(C)CC(C(=O)Nc1ccc(OCc2ccc(Cl)c(Cl)c2)cc1)n1ccnn1 (stereo not shown) [Example 176] | 45600 nM |
| CC(C)CC(C(=O)Nc1ccc(NC(=O)c2ccc(Cl)c(Cl)c2)cc1)P(=O)(O)O (stereo not shown) [Example 118] | 25 ± 1 nM |
| CCCC(S)C(=O)Nc1ccc(OC)cc1 (stereo not shown) [Example 27] | 2400 ± 600 nM |
| CC(C)CC(C(=O)NC1CCN(c2ccc(Cl)cc2)CC1)P(=O)(O)O (stereo not shown) [Example 103] | 1910 ± 110 nM |
| CCC(S)C(=O)Nc1ccc(C(C)=O)cc1 (stereo not shown) [Example 20] | 10000 ± 2000 nM |
| CC(C)CC(C(=O)Nc1ccc(Cl)c(Cl)c1)n1ccnn1 (stereo not shown) [Example 175] | 4300 ± 200 nM |
| CCCC(S)C(=O)Nc1ccc(C)cc1 (stereo not shown) [Example 25] | 2000 ± 200 nM |
| CC(C)CC(C(=O)Nc1ccc(NC(=O)c2ccc(Cl)c(Cl)c2)cc1)P(=O)(O)O (stereo not shown) [Example 137] | 41 ± 3 nM |
| CC(C)CC(C(=O)Nc1ccc(Br)nn1)P(=O)(O)O (stereo not shown) [Example 89] | 7910 ± 390 nM |
| CC(C)CC(C(=O)NC12CC(C(=O)Nc3ccc(Cl)c(Cl)c3)(C1)C2)P(=O)(O)O (stereo not shown) [Example 151, (1-((3-((3,4-Dichlorophenyl)carbamoyl)bicyclo[1.1.1]pentan-1-yl)amino)-4-methyl-1-oxopentan-2-yl)phosphonic acid] | 347 ± 12 nM |
| CC(C)CC(C(=O)N1CCN(Cc2ccc(-c3ccc(Cl)cc3)cc2)CC1)P(=O)(O)O (stereo not shown) [Example 150] | 8660 ± 1110 nM |
| O=C(Nc1ccc([N+](=O)[O-])cc1)C(S)Cc1ccccc1 (stereo not shown) [Example 9] | 970 ± 100 nM |
| COc1ccccc1NC(=O)C(S)CC(C)C (stereo not shown) [Example 32] | 700 ± 40 nM |
| COc1ccc(NC(=O)C(CC(C)C)P(=O)(O)O)cc1 (stereo not shown) [Example 66] | 52 ± 10 nM |
| CC(C)CC(C(=O)N[C@@H](Cc1ccccc1)C(=O)Nc1ccc(Cl)c(Cl)c1)P(=O)(O)O (stereo partly shown) [Example 157] | 427 ± 48 nM |
| CC(C)CC(C(=O)Nc1ccc(NS(=O)(=O)c2ccc3c(c2)CN(C(=O)C(F)(F)F)CC3)cc1)P(=O)(O)O (stereo not shown) [Example 115] | 57 ± 3 nM |
| CCC(S)C(=O)Nc1ccc(OC)cc1 (stereo not shown) [Example 19] | 4200 ± 600 nM |
| CCC(S)C(=O)Nc1ccc(Cl)c(Cl)c1 (stereo not shown) [Example 18] | 2400 ± 400 nM |
| CC(C)CC(C(=O)NCC(=O)Nc1ccc(Cl)c(Cl)c1)P(=O)(O)O (stereo not shown) [Example 163] | 1756 ± 3 nM |
| CC(C)CC(C(=O)N[C@H](CC(=O)Nc1ccc(Cl)c(Cl)c1)C(C)C)P(=O)(O)O (stereo partly shown) [Example 168] | 1760 ± 30 nM |

| SMILES | IC50 |
| --- | --- |
| O=C(Nc1nc2ccccc2[nH]1)C(S)Cc1ccccc1 (stereo not shown) [Example 61] | 7700 ± 1400 nM |
| CC(S)C(=O)Nc1ccc(Cl)c(Cl)c1 (stereo not shown) [Example 15] | 4500 ± 700 nM |
| O=C(Nc1nc2ccccc2s1)C(S)Cc1ccccc1 (stereo not shown) [Example 55] | 750 ± 70 nM |
| O=C(Nc1ccccc1)C(S)Cc1ccc(O)cc1 (stereo not shown) [Example 11] | 7300 ± 500 nM |
| CC(C)C(CC(=O)N1CCN(Cc2ccc(-c3ccc(Cl)cc3)cc2)CC1)P(=O)(O)O (stereo not shown) [Example 149] | 7280 ± 960 nM |
| COC(=O)c1ccc(NC(=O)C(CC(C)C)P(=O)(O)O)cn1 (stereo not shown) [Example 85] | 194 ± 11 nM |
| O=C(O)CC(S)C(=O)Nc1ccc(Cl)c(Cl)c1 (stereo not shown) [Example 54] | 3900 ± 400 nM |
| COc1ccc2nc(NC(=O)C(S)Cc3ccccc3)sc2c1 (stereo not shown) [Example 56] | 950 ± 80 nM |
| CC(C)CC(S)C(=O)Nc1ccccc1O (stereo not shown) [Example 40] | 1400 ± 200 nM |
| CC(C)CC(C(=O)Nc1ccc2c(c1)CCC2)P(=O)(O)O (stereo not shown) [Example 77] | 44 ± 4 nM |
| Cc1ccc(NC(=O)C(CC(C)C)P(=O)(O)O)c(F)c1 (stereo not shown) [Example 65] | 116 ± 16 nM |
| CC(C)CC(C(=O)N[C@@H](CC(C)C)C(=O)Nc1ccc(Cl)c(Cl)c1)P(=O)(O)O (stereo partly shown) [Example 155] | 60 ± 2 nM |
| CC(C)CC(C(=O)Nc1ccc(C#N)cc1)P(=O)(O)O (stereo not shown) [Example 73] | 25 ± 1 nM |
| CCC(C)C(S)C(=O)Nc1ccc(Cl)c(Cl)c1 (stereo not shown) [Example 43] | 7500 ± 200 nM |
| CC(C)CC(C(=O)Nc1cccc2ccccc12)P(=O)(O)O (stereo not shown) [Example 75] | 69 ± 8 nM |
| CC(C)CC(S)C(=O)Nc1ccc(Cl)cc1 (stereo not shown) [Example 38] | 840 ± 240 nM |
| CC(C)CC(C(=O)N[C@@H](C)C(=O)Nc1ccc(Cl)c(Cl)c1)P(=O)(O)O (stereo partly shown) [Example 153] | 62 ± 2 nM |
| CC(=O)c1ccc(NC(=O)C(S)CC(C)C)cc1 (stereo not shown) [Example 39] | 690 ± 340 nM |
| CCC(C)C(S)C(=O)Nc1ccc(OC)cc1 (stereo not shown) [Example 44] | 17000 ± 2000 nM |
| CCCCC(S)C(=O)Nc1ccc(Cl)c(Cl)c1 (stereo not shown) [Example 29] | 6800 ± 1100 nM |
| CC(C)CC(C(=O)Nc1ccc(Cl)cn1)P(=O)(O)O (stereo not shown) [Example 82] | 501 ± 39 nM |
| CC(C)CC(C(=O)Nc1ccc(Cl)nn1)P(=O)(O)O (stereo not shown) [Example 88] | 18800 ± 740 nM |

same assay, conditions: IC50 against LasB (Table 16), heteropentacycles and benzannulated heteropentacycles

| SMILES | IC50 |
| --- | --- |
| CC(C)CC(C(=O)N[C@H](c1ncc(-c2ccc(Cl)c(Cl)c2)[nH]1)C(C)C)P(=O)(O)O (mixture of isomers) [Example 171, (1-(((S)-1-(5-(3,4-dichlorophenyl)-1H-imidazol-2-yl)-2-methylpropyl)amino)-4-methyl-1-oxopentan-2-yl)phosphonic acid] | 6000 ± 200 nM |

same assay, conditions: read-out: IC50 against LasB

| SMILES | IC50 |
| --- | --- |
| Cc1ccc(NC(=O)C(S)Cc2ccccc2)cc1 (stereo not shown) [Example 8] | 480 ± 40 nM |
| Cc1ccccc1NC(=O)C(S)Cc1ccccc1 (stereo not shown) [Example 6] | 2400 ± 1000 nM |
| O=C(Nc1nc2ccc(Cl)cc2s1)C(S)Cc1ccccc1 (stereo not shown) [Example 57] | 2400 ± 200 nM |
| O=C(Nc1ccccc1)C(S)Cc1ccc(O)c([N+](=O)[O-])c1 (stereo not shown) [Example 12] | 2500 ± 100 nM |
| O=C(Nc1ccc(Cl)c(Cl)c1)C(S)CC1CCCCC1 (stereo not shown) [Example 47] | 12000 ± 3000 nM |
| O=C(Nc1ccc(Cl)c(Cl)c1)C(S)CC1CC1 (stereo not shown) [Example 45] | 6300 ± 1200 nM |

system: not listed separately; experiment: Cytotoxicity HepG2; assay type: cell-based; conditions: human, HepG2 cells
Method: as §2

| SMILES | IC50 |
| --- | --- |
| CC(C)CC(C(=O)Nc1ccc(-c2ccc(Cl)cc2)nc1)P(=O)(O)O (stereo not shown) [Example 92] | > 100000 nM |

system: P. aeruginosa PA14; experiment: PA14 inhibition (MIC, antibacterial effect); assay type: cell-based; conditions: Pseudomonas aeruginosa, PA14; read-out: MIC PA14
Method: as §2

| SMILES | MIC |
| --- | --- |
| CC(C)CC(C(=O)Nc1ccc(-c2ccc(Cl)cc2)nc1)P(=O)(O)O (stereo not shown) [Example 92] | > 100 µM |

molecular target: MMP-3 (Homo sapiens, UniProt P08254); experiment: Selectivity against human off-targets: MMP-3; assay type: biochemical; conditions: at 100 μM; read-out: Inhibition [%] MMP-3
Sequence (P08254 100-477): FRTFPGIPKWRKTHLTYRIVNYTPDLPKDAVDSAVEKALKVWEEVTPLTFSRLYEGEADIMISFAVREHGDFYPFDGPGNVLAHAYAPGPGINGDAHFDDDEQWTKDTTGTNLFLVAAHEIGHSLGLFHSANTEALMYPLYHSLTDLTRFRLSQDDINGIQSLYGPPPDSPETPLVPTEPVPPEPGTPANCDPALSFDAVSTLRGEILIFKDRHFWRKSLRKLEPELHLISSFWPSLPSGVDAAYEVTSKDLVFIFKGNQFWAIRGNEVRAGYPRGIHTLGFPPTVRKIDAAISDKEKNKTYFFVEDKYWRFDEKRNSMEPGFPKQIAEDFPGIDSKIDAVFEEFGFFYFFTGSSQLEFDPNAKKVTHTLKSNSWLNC
Excerpt: as §1

| SMILES | inhibition at 100 µM |
| --- | --- |
| CC(C)CC(C(=O)Nc1ccc(-c2ccc(Cl)cc2)nc1)P(=O)(O)O (stereo not shown) [Example 92] | < 10% |

molecular target: ADAM17 (TACE) (Homo sapiens, UniProt P78536); experiment: Selectivity against human off-targets: ADAM17 (TACE); assay type: biochemical; conditions: read-out: IC50 ADAM17 (TACE)
Sequence (P78536 215-824): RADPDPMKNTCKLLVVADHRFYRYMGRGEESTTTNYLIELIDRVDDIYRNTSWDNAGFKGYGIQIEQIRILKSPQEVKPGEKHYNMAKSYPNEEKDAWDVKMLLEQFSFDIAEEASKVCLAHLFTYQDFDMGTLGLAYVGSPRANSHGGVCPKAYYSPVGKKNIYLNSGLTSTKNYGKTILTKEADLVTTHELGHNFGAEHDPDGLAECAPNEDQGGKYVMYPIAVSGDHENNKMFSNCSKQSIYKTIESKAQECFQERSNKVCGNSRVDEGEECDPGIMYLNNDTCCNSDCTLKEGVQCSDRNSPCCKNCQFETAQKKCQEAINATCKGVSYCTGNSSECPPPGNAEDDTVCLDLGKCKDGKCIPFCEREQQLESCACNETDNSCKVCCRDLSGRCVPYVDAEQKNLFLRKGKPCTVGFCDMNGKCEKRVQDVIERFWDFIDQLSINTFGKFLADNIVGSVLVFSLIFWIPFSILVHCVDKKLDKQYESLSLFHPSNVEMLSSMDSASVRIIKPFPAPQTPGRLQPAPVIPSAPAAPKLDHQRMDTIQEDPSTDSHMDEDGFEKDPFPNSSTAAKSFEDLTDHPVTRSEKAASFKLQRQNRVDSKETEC

| SMILES | IC50 |
| --- | --- |
| Cc1ccc(NC(=O)C(S)Cc2ccccc2)cc1 (stereo not shown) [Example 8] | 4800 ± 1200 nM |

system: not listed separately; experiment: Cytotoxicity HEK293; assay type: cell-based; conditions: human, HEK293 cells
Method: as §2

| SMILES | IC50 |
| --- | --- |
| CC(C)CC(C(=O)Nc1ccc(-c2ccc(Cl)cc2)nc1)P(=O)(O)O (stereo not shown) [Example 92] | > 100000 nM |

molecular target: T2, MMP-1 (Homo sapiens, UniProt P03956); experiment: Selectivity against human off-targets: MMP-1; assay type: biochemical; conditions: at 100 μM; read-out: Inhibition [%] MMP-1
T2 sequence (P03956 100-469): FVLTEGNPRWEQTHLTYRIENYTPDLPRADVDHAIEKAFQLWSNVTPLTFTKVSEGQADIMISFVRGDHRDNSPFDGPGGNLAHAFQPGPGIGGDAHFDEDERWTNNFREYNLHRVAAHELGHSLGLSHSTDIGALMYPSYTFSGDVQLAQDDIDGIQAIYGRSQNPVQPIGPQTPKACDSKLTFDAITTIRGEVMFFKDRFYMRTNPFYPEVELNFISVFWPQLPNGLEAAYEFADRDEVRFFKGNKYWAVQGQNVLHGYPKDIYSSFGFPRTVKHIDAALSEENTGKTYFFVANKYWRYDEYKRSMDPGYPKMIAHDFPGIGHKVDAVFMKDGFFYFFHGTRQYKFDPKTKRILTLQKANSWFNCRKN
Excerpt: as §1

| SMILES | inhibition at 100 µM |
| --- | --- |
| CC(C)CC(C(=O)Nc1ccc(-c2ccc(Cl)cc2)nc1)P(=O)(O)O (stereo not shown) [Example 92] | < 10% |
